Our source for the IC50 values is BindingDB's records for patent US20230286970 (Italfarmaco, 2023).

Each structure is given as a SMILES string.

One assay has as its target T1, Histone deacetylase 6 (Homo sapiens, UniProt Q9UBN7).
T1 sequence (Q9UBN7 whole entry): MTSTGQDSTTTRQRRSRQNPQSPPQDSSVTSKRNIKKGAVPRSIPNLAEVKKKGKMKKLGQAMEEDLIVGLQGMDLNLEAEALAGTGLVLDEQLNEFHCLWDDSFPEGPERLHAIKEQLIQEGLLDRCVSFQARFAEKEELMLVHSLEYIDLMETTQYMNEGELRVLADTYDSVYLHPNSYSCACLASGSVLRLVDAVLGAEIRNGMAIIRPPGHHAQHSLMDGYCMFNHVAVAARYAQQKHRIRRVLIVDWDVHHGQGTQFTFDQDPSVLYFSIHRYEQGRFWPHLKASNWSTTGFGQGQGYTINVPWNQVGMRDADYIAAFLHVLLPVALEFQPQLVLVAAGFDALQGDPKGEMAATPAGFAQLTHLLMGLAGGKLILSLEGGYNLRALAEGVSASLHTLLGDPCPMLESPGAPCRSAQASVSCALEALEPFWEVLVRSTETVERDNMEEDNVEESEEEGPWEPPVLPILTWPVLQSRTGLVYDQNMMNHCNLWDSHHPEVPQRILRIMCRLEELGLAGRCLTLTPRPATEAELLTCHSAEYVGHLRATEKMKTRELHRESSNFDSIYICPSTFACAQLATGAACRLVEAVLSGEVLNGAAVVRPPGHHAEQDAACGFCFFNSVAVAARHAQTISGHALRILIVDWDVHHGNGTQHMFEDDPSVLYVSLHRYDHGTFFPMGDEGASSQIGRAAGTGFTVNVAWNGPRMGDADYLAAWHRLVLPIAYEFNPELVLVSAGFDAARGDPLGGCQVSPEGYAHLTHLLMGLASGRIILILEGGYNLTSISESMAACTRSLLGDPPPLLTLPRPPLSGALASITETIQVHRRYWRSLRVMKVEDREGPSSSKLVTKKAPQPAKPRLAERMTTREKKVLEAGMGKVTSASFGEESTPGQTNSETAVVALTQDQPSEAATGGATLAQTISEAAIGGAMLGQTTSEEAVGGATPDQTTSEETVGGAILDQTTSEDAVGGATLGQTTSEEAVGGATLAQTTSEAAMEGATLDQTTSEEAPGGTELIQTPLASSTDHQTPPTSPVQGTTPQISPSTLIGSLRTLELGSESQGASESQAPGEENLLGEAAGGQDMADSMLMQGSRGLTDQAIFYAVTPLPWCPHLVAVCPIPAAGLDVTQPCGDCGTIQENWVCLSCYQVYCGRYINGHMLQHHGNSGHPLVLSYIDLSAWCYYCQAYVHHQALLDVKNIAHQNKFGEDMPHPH
In words: Enzymatic Activity Assay. The method, then: (§1) After a period of preincubation (incubation times and temperatures vary for different isoforms and are shown in table 1) 25 μL of solution containing the substrate were added. […] Enzymatic activity on recombinant human HDAC6 and HDAC1 was evaluated (Table 2) for each synthesized compound.

The target in the next assay is Histone deacetylase 1 (Homo sapiens, UniProt Q13547). In words: Enzymatic Activity Assay. The method, then: as §1
Sequence of Histone deacetylase 1 (Q13547 whole entry): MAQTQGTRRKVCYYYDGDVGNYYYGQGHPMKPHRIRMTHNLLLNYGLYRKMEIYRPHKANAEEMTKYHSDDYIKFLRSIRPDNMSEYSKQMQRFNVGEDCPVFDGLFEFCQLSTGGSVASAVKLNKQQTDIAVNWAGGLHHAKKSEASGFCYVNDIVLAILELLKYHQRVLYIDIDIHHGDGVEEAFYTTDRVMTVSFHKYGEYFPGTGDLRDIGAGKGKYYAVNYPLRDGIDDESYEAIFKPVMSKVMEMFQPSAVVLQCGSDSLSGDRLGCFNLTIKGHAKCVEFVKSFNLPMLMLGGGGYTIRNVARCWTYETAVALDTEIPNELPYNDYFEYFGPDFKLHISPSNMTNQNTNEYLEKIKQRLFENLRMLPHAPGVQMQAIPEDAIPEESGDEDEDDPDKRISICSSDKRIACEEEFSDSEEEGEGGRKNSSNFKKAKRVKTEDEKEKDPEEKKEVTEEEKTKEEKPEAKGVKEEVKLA

Broadly, the IC50 is the point on the concentration scale where inhibition reaches its midpoint. For the compound `NC(=O)c1cccc(-c2nnn(Cc3ccc(-c4nnc(C(F)F)o4)cn3)n2)c1` [US20230286970, Compound 29], the values for the IC50 on Histone deacetylase 6 and on Histone deacetylase 1 were 10 nM and greater than 200000 nM, respectively.
Taken in the same sequence, the figures for `NCc1ccc(-c2nnn(Cc3c(F)cc(-c4nnc(C(F)F)o4)cc3F)n2)cc1` [US20230286970, Compound 33] were 14 nM and greater than 200000 nM.
In the case of `Nc1ncc(-c2cccc(-c3nnn(Cc4ccc(-c5nnc(C(F)F)o5)cn4)n3)c2)s1` [US20230286970, Compound 38], the IC50 was 18 nM at Histone deacetylase 6 and greater than 200000 nM against Histone deacetylase 1.
The matching figures for `NCc1ccc(-c2cn(Cc3c(F)cc(-c4nnc(C(F)F)o4)cc3F)nn2)cc1` [US20230286970, Compound 44]: 20 nM and 163000 nM.
`Nc1ccc(-c2cn(Cc3ccc(-c4nnc(C(F)F)o4)cc3)nn2)cn1` [US20230286970, Compound 52] came in with an IC50 against Histone deacetylase 6 of 23 nM.
As for `O=C1NCc2ccc(-c3nnn(Cc4ccc(-c5nnc(C(F)F)o5)cc4)n3)cc21` [US20230286970, Compound 55], the IC50 is 24 nM against Histone deacetylase 6 and greater than 200000 nM against Histone deacetylase 1.
Taken in the same sequence, the figures for `Oc1ccc(-c2nnn(Cc3ccc(-c4nnc(C(F)F)o4)cc3)n2)cc1` [US20230286970, Compound 56] were 25 nM and greater than 200000 nM.
The matching figures for `O=C1NCc2ccc(-c3nnn(Cc4c(F)cc(-c5nnc(C(F)F)o5)cc4F)n3)cc21` [US20230286970, Compound 57]: 25 nM and greater than 200000 nM.
In turn, `C[C@H](c1ccc(-c2nnc(C(F)F)o2)cc1)n1cc(-c2ccc(N)nc2)nn1` [US20230286970, Compound 106] gave an IC50 against Histone deacetylase 6 of 41 nM.
Regarding `O=C1Nc2ccc(-c3nnn(Cc4ccc(-c5nnc(C(F)F)o5)cc4)n3)cc2NC12CCCCC2` [US20230286970, Compound 157], the figures for the IC50 on Histone deacetylase 6 and at Histone deacetylase 1 were 70 nM and greater than 200000 nM, respectively.
The matching figures for `FC(F)c1nnc(-c2cnc(Cn3nnc(-c4cccs4)n3)nc2)o1` [US20230286970, Compound 187]: 41 nM and greater than 200000 nM.
The matching figures for `CN(C)C(=Nc1ccc(-c2cn(Cc3ccc(-c4nnc(C(F)F)o4)cc3)nn2)cc1)N(C)C` [US20230286970, Compound 217]: 154 nM and greater than 200000 nM.
As to `C[C@@H](c1ccc(-c2nnc(C(F)F)o2)cc1)n1cc(-c2ccc(N)nc2)nn1` [US20230286970, Compound 255], the IC50 against Histone deacetylase 6 worked out at 377 nM.
For `O=C(O)c1cccc(-c2nnn(Cc3ccc(-c4nnc(C(F)F)o4)cc3)n2)c1` [US20230286970, Compound 260], the IC50 against Histone deacetylase 6 is 480 nM; on Histone deacetylase 1, greater than 200000 nM.
Taken in the same sequence, the figures for `O=C(O)c1cccc(-c2cn(Cc3ccc(-c4nnc(C(F)F)o4)cc3)nn2)c1` [US20230286970, Compound 275] were 373 nM and greater than 200000 nM.
Taken in the same sequence, the figures for `CCN(Cc1cn(Cc2c(F)cc(-c3nnc(C(F)F)o3)cc2F)nn1)C(=O)Nc1cccnc1OC` [US20230286970, Compound 283] were 225 nM and greater than 200000 nM.
Taken in the same sequence, the figures for `COc1ncc(NCc2ccc(-n3cc(Cc4ccc(-c5nnc(C(F)F)o5)cc4)nn3)cc2)cc1C(N)=O` [US20230286970, Compound 286] were 99 nM and greater than 200000 nM.
For the compound `Nc1ncnc2sc(-c3cn(Cc4ccc(-c5nnc(C(F)F)o5)c(F)c4F)nn3)cc12` [US20230286970, Compound 384], inhibition against Histone deacetylase 6 was half-maximal at 63 nM (IC50).
In turn, `CN(C)c1ccc2cc(-c3cn(Cc4c(F)cc(-c5nnc(C(F)F)o5)cc4F)nn3)ccc2n1` [US20230286970, Compound 399] registered an IC50 against Histone deacetylase 6 of 247 nM.
On the same count and under the same terms, as for `Nc1ccc(-n2cc(Cc3ccc(-c4nnc(C(F)F)o4)cc3)nn2)cn1` [US20230286970, Compound 413], the figure is 515 nM; as for `Nc1ncnc2sc(-c3cn(Cc4cc(F)c(-c5nnc(C(F)F)o5)cc4F)nn3)cc12` [US20230286970, Compound 415], 49 nM.
